Assay [1] has as its target RyR2 (Rattus norvegicus, UniProt B0LPN4). In words: Fluorescent CaM binding at the Z-line and at RyR2 (FKBP12.6-CaM FRET) in permeabilized myocytes. On the set-up: These fluorescent proteins were added to saponin-permeabilized myocytes with or without pre-equilibration with saturating DPc10 concentration; endogenous in cells; host or cells: saponin-permeabilized rat ventricular myocytes. Here is the method:
These fluorescent proteins were added to saponin-permeabilized myocytes with or without pre-equilibration with saturating DPc10 concentration. […] We also did this with high [CaM] (500 nmol/L) that saturates RyR2 with CaM under control conditions (without DPc10; FIG. 17C). […] To test whether DPc10 and CaM bind at the same or nearby RyR2 sites, we measured FRET between CaM and DPc10.
CaM also binds to RyR2 and reduces RyR2 open probability, and works as a regulatory protein for RyR2 channel gating (Yamaguchi et al., J Biol Chem. 2003; 278:23480-23486; Balshaw et al., J Biol Chem. 2001; 276:20144-20153; Yang et al., Circ Res. 2014; 114:295-306); Yamaguchi et al., J Clin Invest. 2007; 117:1344-1353). We measured the effect of H2O2 on CaM-RyR2 binding affinity using F-CaM as in our previous reports (Yang et al., Circ Res. 2014; 114:295-306; Cornea et al., Proc Natl Acad Sci USA. 2009; 106:6128-6133).
(50 μmol/L) in media containing 50 μmol/L H2O2 (the same concentration used in myocyte pre-incubation experiments). This allowed F-CaM oxidation (and call this F-CaM^Ox). This was then diluted 2500-fold to 20 nmol/L F-CaM^Ox and no H2O2 was present in the myocyte bath.
As a further test of whether RyR2 oxidation alone inhibits subsequent CaM affinity, we removed H2O2 from the myocytes by repeated washing, prior to the addition of F-CaM.

A further assay deals with intact cardiac myocytes. Kind of assay: Spontaneous Ca2+ waves (SCW) in intact cardiac myocytes. The format is cell-based, rat. Here is the method:
Intact cardiomyocytes were loaded with Fluo-4 AM (5 μmol/L, Molecular Probes) for 15 min in NT solution (in mM): NaCl 140, KCl 4, MgCl2 1, CaCl2 2, glucose 10, HEPES 5, pH 7.4. Fluo-4 AM was excited at 488 nm and emission was recorded using a 500-530 nm bandpass filter. Ca^2+sparks were recorded after field stimulation at 1 Hz, and caffeine (10mmol/L) was rapidly perfused for assessing the SR Ca^2+content. Both Ca^2+sparks and SR Ca^2+content were recorded by using a laser scanning confocal microscope (RADIANCE2000™ MP, Bio-Rad, UK). Data were analyzed using SparkMaster, an automated analysis program that allows rapid and reliable spark analysis (Picht et al., J. Am J Physiol Cell Physiol. 2007;293:C1073-C1081). Spontaneous Ca^2+waves were recorded using a BZ9000 fluorescence digital microscope (Keyence, Japan), after 10 sec from field electric stimulation at 1,2,3,4 and 5 Hz, as described previously (Fukuda et al., Biochem Biophys Res Commun. 2014;448:1-7).

For assay [2], the system named is RyR2. In words: RyR2 free thiol content by monobromobimane (mBB) fluorescence. It counts as cell-based, rat. As to conditions: 50 μmol/L H2O2, with or without dantrolene pretreatment. As to the method:
Intracellular reactive oxygen species (ROS) formation was measured in rat cardiac myocytes using a fluorescent probe, 5-(and -6)-chloromethyl-2′,7′-dichlorodihydrofluoroscein diacetate (H2DCFDA, 10 μmol/L) (Terentyev et al., Circ Res. 2008; 103:1466-1472). This assay is widely used as a reliable method for the measurement of intracellular ROS such as hydrogen peroxide, hydroxyl radicals, and hydroperoxide. The H2DCFDA dye was excited with the 488 nm and emission was collected at 500-530 nm. The content of free thiols in RyR2 was determined based on the monobromobimane (mBB, Calbiochem) fluorescence intensity, as previously described (Terentyev et al., Circ Res. 2008; 103:1466-1472; Ho et al., J Physiol. 2011; 19:4697-4708). In brief, myocytes were incubated with mBB for 1 hr. Myocytes were then lysed in lysis buffer and loaded on 6% SDS-PAGE gels. The fluorescence emission intensity of the RyR2-bound mBB was measured at 482 nm by exciting at 382 nm. mBB fluorescence was normalized to the RyR2 amount, which was determined using quantitative densitometry of Coomassie Blue-stained gels.
To monitor intracellular ROS level, we used H2DCFDA (10 μmol/L). […] To assess whether dantrolene can attenuate the extent of RyR2 thiol modification in H2O2-treated myocytes, we used a monobromobimane (mBB) fluorescence labeling assay.

Where no end group is shown, it is not given here.

Chain of RyR2 (Rattus norvegicus, UniProt B0LPN4) (B0LPN4 whole entry): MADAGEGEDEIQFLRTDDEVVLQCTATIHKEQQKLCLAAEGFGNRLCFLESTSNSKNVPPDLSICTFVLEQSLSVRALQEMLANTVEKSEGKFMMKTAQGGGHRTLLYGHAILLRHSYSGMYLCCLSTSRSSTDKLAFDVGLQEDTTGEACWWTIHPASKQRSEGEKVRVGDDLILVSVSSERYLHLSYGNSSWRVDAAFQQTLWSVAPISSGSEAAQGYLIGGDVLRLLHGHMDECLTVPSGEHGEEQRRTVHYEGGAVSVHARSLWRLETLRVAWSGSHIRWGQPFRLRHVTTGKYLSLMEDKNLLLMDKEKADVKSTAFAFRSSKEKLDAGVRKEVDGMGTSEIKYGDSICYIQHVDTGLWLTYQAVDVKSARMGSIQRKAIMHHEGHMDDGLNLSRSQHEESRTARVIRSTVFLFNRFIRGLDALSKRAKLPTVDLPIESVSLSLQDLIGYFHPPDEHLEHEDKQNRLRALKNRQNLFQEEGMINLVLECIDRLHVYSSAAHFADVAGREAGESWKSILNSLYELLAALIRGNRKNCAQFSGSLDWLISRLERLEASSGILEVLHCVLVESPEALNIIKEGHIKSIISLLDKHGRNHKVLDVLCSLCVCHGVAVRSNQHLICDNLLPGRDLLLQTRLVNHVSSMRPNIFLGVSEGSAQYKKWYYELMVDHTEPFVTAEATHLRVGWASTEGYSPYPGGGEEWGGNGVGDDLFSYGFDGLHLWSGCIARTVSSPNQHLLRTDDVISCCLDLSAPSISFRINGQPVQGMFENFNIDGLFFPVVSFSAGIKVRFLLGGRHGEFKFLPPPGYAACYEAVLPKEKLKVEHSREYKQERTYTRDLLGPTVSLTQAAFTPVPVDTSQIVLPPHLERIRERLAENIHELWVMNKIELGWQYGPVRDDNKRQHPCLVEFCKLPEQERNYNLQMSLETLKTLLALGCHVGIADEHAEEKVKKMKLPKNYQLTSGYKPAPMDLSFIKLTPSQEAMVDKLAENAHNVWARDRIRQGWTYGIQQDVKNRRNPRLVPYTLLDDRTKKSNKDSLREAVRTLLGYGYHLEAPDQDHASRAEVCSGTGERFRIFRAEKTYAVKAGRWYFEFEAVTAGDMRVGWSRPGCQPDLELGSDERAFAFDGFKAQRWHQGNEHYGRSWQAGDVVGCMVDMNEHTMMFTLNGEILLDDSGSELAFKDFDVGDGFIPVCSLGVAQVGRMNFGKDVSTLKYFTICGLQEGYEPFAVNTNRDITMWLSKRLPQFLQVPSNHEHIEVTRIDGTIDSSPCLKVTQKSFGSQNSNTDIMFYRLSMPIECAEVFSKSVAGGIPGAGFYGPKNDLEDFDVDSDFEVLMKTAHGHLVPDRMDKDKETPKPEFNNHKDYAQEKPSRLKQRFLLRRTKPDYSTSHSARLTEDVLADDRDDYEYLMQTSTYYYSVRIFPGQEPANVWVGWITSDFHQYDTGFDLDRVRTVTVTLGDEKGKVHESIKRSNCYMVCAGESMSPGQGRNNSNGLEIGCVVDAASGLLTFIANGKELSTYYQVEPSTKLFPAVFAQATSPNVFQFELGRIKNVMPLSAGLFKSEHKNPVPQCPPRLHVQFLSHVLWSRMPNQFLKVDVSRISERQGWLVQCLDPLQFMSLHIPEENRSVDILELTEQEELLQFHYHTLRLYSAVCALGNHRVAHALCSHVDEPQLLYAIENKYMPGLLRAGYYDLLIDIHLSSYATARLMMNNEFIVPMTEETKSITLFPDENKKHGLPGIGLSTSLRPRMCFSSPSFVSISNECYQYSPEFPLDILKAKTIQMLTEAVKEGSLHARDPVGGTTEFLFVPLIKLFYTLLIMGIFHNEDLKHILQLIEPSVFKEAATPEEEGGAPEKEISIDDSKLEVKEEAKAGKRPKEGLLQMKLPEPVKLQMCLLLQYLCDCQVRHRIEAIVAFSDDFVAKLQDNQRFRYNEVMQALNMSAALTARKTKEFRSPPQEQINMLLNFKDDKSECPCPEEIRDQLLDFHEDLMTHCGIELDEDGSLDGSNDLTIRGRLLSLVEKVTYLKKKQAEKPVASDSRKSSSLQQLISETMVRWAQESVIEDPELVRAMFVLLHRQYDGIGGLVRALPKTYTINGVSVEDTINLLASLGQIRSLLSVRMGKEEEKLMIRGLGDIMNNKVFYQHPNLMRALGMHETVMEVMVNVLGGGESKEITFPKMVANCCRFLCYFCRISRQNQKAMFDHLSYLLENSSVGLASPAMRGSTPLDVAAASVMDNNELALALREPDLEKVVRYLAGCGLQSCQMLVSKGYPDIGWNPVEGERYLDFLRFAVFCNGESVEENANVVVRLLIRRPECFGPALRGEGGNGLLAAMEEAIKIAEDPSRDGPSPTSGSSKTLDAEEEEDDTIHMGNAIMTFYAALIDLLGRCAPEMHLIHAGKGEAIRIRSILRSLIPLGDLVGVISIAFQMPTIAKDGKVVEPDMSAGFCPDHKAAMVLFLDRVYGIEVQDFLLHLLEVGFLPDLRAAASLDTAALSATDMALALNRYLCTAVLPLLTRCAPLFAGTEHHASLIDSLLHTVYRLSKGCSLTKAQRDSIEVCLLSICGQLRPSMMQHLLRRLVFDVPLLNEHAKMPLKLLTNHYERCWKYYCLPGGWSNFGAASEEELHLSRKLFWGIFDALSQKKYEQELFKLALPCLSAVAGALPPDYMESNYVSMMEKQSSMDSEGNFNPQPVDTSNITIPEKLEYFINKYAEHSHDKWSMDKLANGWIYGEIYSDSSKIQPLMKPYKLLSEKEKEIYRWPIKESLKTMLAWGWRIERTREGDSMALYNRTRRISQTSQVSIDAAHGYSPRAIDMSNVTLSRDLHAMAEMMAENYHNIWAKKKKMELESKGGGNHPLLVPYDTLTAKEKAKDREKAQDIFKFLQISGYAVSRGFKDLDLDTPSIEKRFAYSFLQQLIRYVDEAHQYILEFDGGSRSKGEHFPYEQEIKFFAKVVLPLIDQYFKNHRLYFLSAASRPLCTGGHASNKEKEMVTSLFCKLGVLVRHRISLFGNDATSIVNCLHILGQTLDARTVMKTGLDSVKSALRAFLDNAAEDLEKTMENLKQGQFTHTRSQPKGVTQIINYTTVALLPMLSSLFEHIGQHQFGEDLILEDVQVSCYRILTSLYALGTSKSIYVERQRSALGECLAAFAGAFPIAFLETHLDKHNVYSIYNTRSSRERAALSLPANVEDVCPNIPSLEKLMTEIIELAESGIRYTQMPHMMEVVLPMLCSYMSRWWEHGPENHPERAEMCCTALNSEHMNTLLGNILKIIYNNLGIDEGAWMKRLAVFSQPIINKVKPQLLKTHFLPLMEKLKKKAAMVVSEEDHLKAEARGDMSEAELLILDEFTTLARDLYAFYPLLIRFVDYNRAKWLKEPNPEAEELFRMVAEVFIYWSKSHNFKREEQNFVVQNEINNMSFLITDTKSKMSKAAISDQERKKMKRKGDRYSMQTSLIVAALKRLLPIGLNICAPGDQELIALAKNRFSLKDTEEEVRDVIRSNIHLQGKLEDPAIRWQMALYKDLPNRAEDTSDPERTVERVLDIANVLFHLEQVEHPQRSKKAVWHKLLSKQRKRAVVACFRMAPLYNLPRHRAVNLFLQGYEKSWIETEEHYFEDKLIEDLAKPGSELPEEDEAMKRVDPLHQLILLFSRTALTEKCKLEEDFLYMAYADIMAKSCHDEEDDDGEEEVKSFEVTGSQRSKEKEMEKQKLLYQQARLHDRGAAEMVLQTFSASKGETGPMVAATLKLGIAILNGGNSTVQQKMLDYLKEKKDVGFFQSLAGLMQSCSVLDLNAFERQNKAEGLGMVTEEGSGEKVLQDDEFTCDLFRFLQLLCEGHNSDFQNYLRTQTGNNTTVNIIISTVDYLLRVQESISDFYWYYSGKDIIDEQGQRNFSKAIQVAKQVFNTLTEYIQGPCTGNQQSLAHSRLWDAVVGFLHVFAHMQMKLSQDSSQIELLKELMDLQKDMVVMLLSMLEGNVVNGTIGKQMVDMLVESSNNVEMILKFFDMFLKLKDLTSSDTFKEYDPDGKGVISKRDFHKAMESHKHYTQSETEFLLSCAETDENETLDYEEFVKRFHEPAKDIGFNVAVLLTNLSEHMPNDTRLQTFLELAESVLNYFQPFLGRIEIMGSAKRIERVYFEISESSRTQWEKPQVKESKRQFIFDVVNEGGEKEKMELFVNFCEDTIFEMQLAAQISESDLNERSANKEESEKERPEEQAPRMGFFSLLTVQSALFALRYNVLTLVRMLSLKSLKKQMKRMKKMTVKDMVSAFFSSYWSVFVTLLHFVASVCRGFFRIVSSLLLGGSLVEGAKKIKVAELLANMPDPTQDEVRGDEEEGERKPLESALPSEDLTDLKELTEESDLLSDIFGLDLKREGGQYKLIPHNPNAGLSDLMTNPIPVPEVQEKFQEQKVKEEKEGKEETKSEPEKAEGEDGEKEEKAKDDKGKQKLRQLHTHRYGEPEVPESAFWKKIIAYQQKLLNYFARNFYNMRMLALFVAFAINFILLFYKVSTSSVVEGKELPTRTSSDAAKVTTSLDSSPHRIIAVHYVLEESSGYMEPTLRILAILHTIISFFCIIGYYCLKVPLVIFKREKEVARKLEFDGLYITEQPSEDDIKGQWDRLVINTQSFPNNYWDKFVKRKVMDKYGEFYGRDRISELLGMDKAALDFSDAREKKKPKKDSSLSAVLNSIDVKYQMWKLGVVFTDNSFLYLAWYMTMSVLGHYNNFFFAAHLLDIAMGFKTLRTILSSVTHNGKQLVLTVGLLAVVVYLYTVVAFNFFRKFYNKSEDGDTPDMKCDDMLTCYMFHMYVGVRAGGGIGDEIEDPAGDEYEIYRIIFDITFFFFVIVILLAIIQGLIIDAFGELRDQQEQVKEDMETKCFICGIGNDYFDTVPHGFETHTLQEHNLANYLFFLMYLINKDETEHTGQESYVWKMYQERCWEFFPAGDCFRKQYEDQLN

For the compound “GFCPDHKAAMVLFLDRVYGIEVQDFLLHLLEVGFLP [DPc10]”, the “effect on CaM binding at the RyR2 and at the Z-line” value at RyR2 [1] (20 nmol/L CaM, DPc10 pretreatment) is “significantly reduced”. For the same compound, at RyR2 [1] (500 nmol/L AF568-34-CaM, DPc10-treated myocytes), the “effect on CaM binding at the RyR2 (FRET) and at the Z-lines (total)” value is recorded as “reduced”.
Regarding `OO` [H2O2, hydrogen peroxide], the “occurrence of SCW vs. control” value with intact cardiac myocytes (pacing rate increased from 1 to 5 Hz) was “significantly increased”. In addition, the “content of free thiols on RyR2 / RyR2 oxidation level” value with RyR2 [2] is on record as “significantly decreased”. The “reduction of F-CaM binding, myocytes pre-treated with H2O2” value at RyR2 [1] (50 μmol/L H2O2 not removed, F-CaM 20 nmol/L) was found to be 50%. For the same compound, the “reduction of F-CaM binding at the Z-line” value on RyR2 [1] (50 μmol/L H2O2 removed by washing before F-CaM) worked out at 32%. In addition, on RyR2 [1] (10 and 50 μmol/L H2O2 pretreatment, F-CaM 20 nmol/L), the “effect on F-CaM binding at the Z-line” value is listed as “reduced”. Besides, the “reduction of RyR2 A-CaM binding” value on RyR2 [1] (subsaturating A-CaM, 50 μM H2O2) is listed as about 50%.
Take `O=C1CN(/N=C/c2ccc(-c3ccc([N+](=O)[O-])cc3)o2)C(O)=N1` [dantrolene]: the “effect on H2O2-induced increase in frequency of SCW” value with intact cardiac myocytes (dantrolene added before H2O2) is recorded as “suppressed”. Besides, the “content of free thiols on RyR2 / RyR2 oxidation level” value in the assay with RyR2 [2] was “did not attenuate”. In addition, the “restoration of F-CaM binding in H2O2-treated myocytes” value on RyR2 [1] (dantrolene 1 μmol/L, AIP 1 μmol/L) is “partially restore”. Also, at RyR2 [1] (no H2O2), the “effect on CaM-RyR2 affinity under control conditions” value is reported as “Neither AIP nor dantrolene alter”.

For the origin of these results see US10281476B2, “Methods to identify modulators of RyR calcium channels” (REGENTS OF THE UNIVERSITY OF MINNESOTA, priority 2013, dated 2019).
